“And” between values parts separate entries of the source, which are not always exact repeats. Equal values may be shown once. Toxic doses and inconclusive results are not listed. No stated cut-off is given here; in the data, active means T/C of 150% or more; inactive means T/C below 125%.
Test system: L1210 leukemia ip in BDF1 mice, survival T/C
Test: NCI In Vivo Anticancer Drug Screen. Data for tumor model L1210 Leukemia (intraperitoneal) in B6D2F1 (BDF1) mice
Conditions: endpoint: mean survival time, higher = longer survival
Procedure, shortened: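 Mice bearing the transplanted tumor received compound or vehicle. Survival of the treated group was divided by that of the vehicle-treated control group to give the ratio.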

[1] = dose: 12.5 mg/kg/injection, schedule: Q01DX009 (ip), vehicle: saline with Tween-80
[2] = dose: 25.0 mg/kg/injection, schedule: Q01DX009 (ip), vehicle: saline with Tween-80
[3] = dose: 50.0 mg/kg/injection, schedule: Q01DX009 (ip), vehicle: saline with Tween-80
[4] = dose: 50.0 mg/kg/injection, schedule: Q04DX003 (ip), vehicle: saline
[5] = dose: 100.0 mg/kg/injection, schedule: Q01DX001 (ip), vehicle: saline
[6] = dose: 100.0 mg/kg/injection, schedule: Q04DX003 (ip), vehicle: saline
[7] = dose: 200.0 mg/kg/injection, schedule: Q01DX001 (ip), vehicle: saline
[8] = dose: 100.0 mg/kg/injection, schedule: Q01DX009 (ip), vehicle: Klucel (hydroxypropylcellulose) (HPC)
[9] = dose: 200.0 mg/kg/injection, schedule: Q01DX009 (ip), vehicle: Klucel (hydroxypropylcellulose) (HPC)
[10] = dose: 100.0 mg/kg/injection, schedule: Q01DX009 (ip), vehicle: saline with Tween-80
[11] = dose: 200.0 mg/kg/injection, schedule: Q01DX009 (ip), vehicle: saline with Tween-80
[12] = dose: 100.0 mg/kg/injection, schedule: Q04DX002 (ip), vehicle: saline with Tween-80
[13] = dose: 100.0 mg/kg/injection, schedule: Q01DX001 (ip), vehicle: saline with Tween-80
[14] = dose: 200.0 mg/kg/injection, schedule: Q01DX001 (ip), vehicle: saline with Tween-80
[15] = dose: 400.0 mg/kg/injection, schedule: Q01DX001 (ip), vehicle: saline with Tween-80
[16] = dose: 100.0 mg/kg/injection, schedule: Q04DX003 (ip), vehicle: saline with Tween-80
[17] = dose: 200.0 mg/kg/injection, schedule: Q04DX003 (ip), vehicle: saline with Tween-80
[18] = dose: 400.0 mg/kg/injection, schedule: Q04DX003 (ip), vehicle: saline with Tween-80

Measured: T/C

CC1CCC2(NC1)OC1CC3C4CCC5CC(OC6OC(CO)C(OC7OC(CO)C(O)C(OC8OCC(O)C(O)C8O)C7OC7OC(CO)C(O)C(O)C7O)C(O)C6O)CCC5(C)C4CCC3(C)C1C2C (centres undefined)
inactive: [1] 93 % of control | [2] 90 % of control | [3] 94 % of control | dose: 100.0 mg/kg/injection, schedule: Q01DX001 (sc), vehicle: steriod suspending solution 95 % of control | dose: 200.0 mg/kg/injection, schedule: Q01DX001 (sc), vehicle: steriod suspending solution 103 % of control | dose: 400.0 mg/kg/injection, schedule: Q01DX001 (sc), vehicle: steriod suspending solution 97 % of control

O=C1C=CC(=O)N1c1ccc2c(c1)oc(=O)c1ccccc12
inactive: dose: 37.5 mg/kg/injection, schedule: Q01DX009 (ip), vehicle: saline with Tween-80 92 % of control | [4] 96 % of control | [5] 97 % of control | [6] 96 % of control | [7] 92 % of control | dose: 200.0 mg/kg/injection, schedule: Q04DX003 (ip), vehicle: saline 97 % of control

N#Cc1nc2c(n(O)c1=N)CCC/C2=C\c1ccccc1
inactive: dose: 50.0 mg/kg/injection, schedule: Q01DX009 (ip), vehicle: Klucel (hydroxypropylcellulose) (HPC) 103 % of control | [8] 103 % of control | [9] 93 % of control

Cc1ccc(S(=O)(=O)Cl)c(Cl)c1
inactive: [3] 92 % of control | [10] 94 % of control | [11] 91 % of control

O=[N+]([O-])c1ccc(OCc2ccccc2S(=O)(=O)F)c(Cl)c1
inactive: dose: 100.0 mg/kg/injection, schedule: Q04DX003 (ip), vehicle: gum acacia 92 % of control | dose: 200.0 mg/kg/injection, schedule: Q04DX003 (ip), vehicle: gum acacia 93 % of control | dose: 400.0 mg/kg/injection, schedule: Q04DX003 (ip), vehicle: gum acacia 100 % of control

CC(=O)N1Cc2ccc(C=O)n2Cc2cc3c(cc21)OCO3
inactive: dose: 25.0 mg/kg/injection, schedule: Q04DX002 (ip), vehicle: Klucel (hydroxypropylcellulose) (HPC) 96 % of control | dose: 50.0 mg/kg/injection, schedule: Q04DX002 (ip), vehicle: Klucel (hydroxypropylcellulose) (HPC) 104 % of control | dose: 100.0 mg/kg/injection, schedule: Q04DX002 (ip), vehicle: Klucel (hydroxypropylcellulose) (HPC) 110 % of control

CCCCSCCSC(=N)N
inactive: dose: 25.0 mg/kg/injection, schedule: Q04DX002 (ip), vehicle: saline with Tween-80 100 % of control | dose: 50.0 mg/kg/injection, schedule: Q04DX002 (ip), vehicle: saline with Tween-80 103 % of control | [12] 103 % of control

COC(C)(C)CN(CCCNC(=S)Nc1ccccc1)C(=S)Nc1ccccc1
inactive: dose: 50.0 mg/kg/injection, schedule: Q01DX001 (ip), vehicle: carboxymethylcellulose (CMC) 103 % of control | dose: 100.0 mg/kg/injection, schedule: Q01DX001 (ip), vehicle: carboxymethylcellulose (CMC) 97 % of control | dose: 200.0 mg/kg/injection, schedule: Q01DX001 (ip), vehicle: carboxymethylcellulose (CMC) 86 % of control | dose: 400.0 mg/kg/injection, schedule: Q01DX001 (ip), vehicle: carboxymethylcellulose (CMC) 93 % of control

NC(=O)Nc1cccc(C(=O)O)c1
inactive: [8] 89 % of control | dose: 100.0 mg/kg/injection, schedule: Q04DX003 (ip), vehicle: Klucel (hydroxypropylcellulose) (HPC) 92 % of control | [9] 87 % of control | dose: 200.0 mg/kg/injection, schedule: Q04DX003 (ip), vehicle: Klucel (hydroxypropylcellulose) (HPC) 92 % of control | dose: 400.0 mg/kg/injection, schedule: Q01DX009 (ip), vehicle: Klucel (hydroxypropylcellulose) (HPC) 87 % of control | dose: 400.0 mg/kg/injection, schedule: Q04DX003 (ip), vehicle: Klucel (hydroxypropylcellulose) (HPC) 96 % of control

CCCCCC=C(c1ccccc1)c1ccccc1
inactive: [13] 92 % of control | [14] 104 % of control | [15] 95 % of control

CSc1nc(N)c(C(N)=O)cc1C#N
inactive: [16] 89 % of control | [17] 89 % of control | [18] 87 % of control

CCCC[Si](C)(C)CCCC
inactive: [5] 103 % of control | [7] 105 % of control | dose: 400.0 mg/kg/injection, schedule: Q01DX001 (ip), vehicle: saline 100 % of control

CC(C)CCCC(C)C1CCC2C3CC=C4CC(OC(=O)C(Cl)(Cl)Cl)CCC4(C)C3CCC12C (centres undefined)
inactive: dose: 40.0 mg/kg/injection, schedule: Q01DX009 (sc), vehicle: steriod suspending solution 94 % of control | dose: 50.0 mg/kg/injection, schedule: Q04DX003 (sc), vehicle: steriod suspending solution 98 % of control | dose: 75.0 mg/kg/injection, schedule: Q01DX009 (sc), vehicle: steriod suspending solution 101 % of control | dose: 100.0 mg/kg/injection, schedule: Q04DX003 (sc), vehicle: steriod suspending solution 101 % of control | dose: 150.0 mg/kg/injection, schedule: Q01DX009 (sc), vehicle: steriod suspending solution 95 % of control | dose: 200.0 mg/kg/injection, schedule: Q04DX003 (sc), vehicle: steriod suspending solution 108 % of control

Cc1ccc(/C(C#N)=C2C=C(Br)/C(=N\O)C=C/2Cl)cc1
inactive: dose: 150.0 mg/kg/injection, schedule: Q01DX009 (ip), vehicle: saline with Tween-80 97 % of control | dose: 225.0 mg/kg/injection, schedule: Q01DX009 (ip), vehicle: saline with Tween-80 90 % of control

CC(C)CC(CC(C)C)NCC(C)OC(=O)c1ccc(N)cc1 (centres undefined)
inactive: [1] 96 % of control and 104 % of control | dose: 12.5 mg/kg/injection, schedule: Q04DX003 (ip), vehicle: saline with Tween-80 92 % of control | [2] 102 % of control and 105 % of control | dose: 25.0 mg/kg/injection, schedule: Q01DX009 (ip), vehicle: saline 98 % of control | dose: 25.0 mg/kg/injection, schedule: Q04DX003 (ip), vehicle: saline with Tween-80 104 % of control | dose: 25.0 mg/kg/injection, schedule: Q04DX003 (ip), vehicle: saline 100 % of control | [3] 96 % of control and 106 % of control | dose: 50.0 mg/kg/injection, schedule: Q01DX009 (ip), vehicle: saline 100 % of control | dose: 50.0 mg/kg/injection, schedule: Q04DX003 (ip), vehicle: saline with Tween-80 93 % of control | [4] 96 % of control | dose: 75.0 mg/kg/injection, schedule: Q01DX001 (ip), vehicle: other 92 % of control | dose: 100.0 mg/kg/injection, schedule: Q01DX009 (ip), vehicle: saline 88 % of control | [6] 102 % of control and 91 % of control

COc1ccc(CCNC(=O)c2ccccc2N)cc1OC
inactive: [13] 97 % of control | [10] 90 % of control and 91 % of control | [12] 98 % of control | [16] 105 % of control | [14] 98 % of control | [11] 95 % of control and 109 % of control | dose: 200.0 mg/kg/injection, schedule: Q04DX002 (ip), vehicle: saline with Tween-80 98 % of control | [17] 92 % of control | [15] 106 % of control | dose: 400.0 mg/kg/injection, schedule: Q01DX009 (ip), vehicle: saline with Tween-80 90 % of control and 91 % of control | dose: 400.0 mg/kg/injection, schedule: Q04DX002 (ip), vehicle: saline with Tween-80 95 % of control | [18] 95 % of control

Reference: PubChem BioAssay AID248 (DTP/NCI, 2004)
